Data published in patent EP4744648A1, “LIPOPEPTIDE-CONTAINING FAT-DISSOLVING PRODUCT, AND PREPARATION METHOD THEREFOR AND USE THEREOF” (Bloomage Biotechnology Corporation Limited, priority 2023, dated 2024).

Key:
[1] = tested on: Mouse adipocyte cell line 3T3-F442A; test: In vitro cytotoxicity test: relative growth rate of cells by CCK-8; type: cell-based; settings: 0.5 mg/mL
Kunming mice [2] = test: Efficacy and side effects on degradation of inguinal adipose tissue, subcutaneous injection once every 14 days; type: in vivo; settings: 1 %; for Adipocyte density (n/mm^2): day 42, M±SEM
Protocol: The adipocyte density was then calculated.
Table 6 Local inflammation in mice of each group

[3] = Observation of solubility in water; type: physicochemical; settings: added to water; room temperature
[4] = Surface tension at serial dilutions (CMC value determination), automatic interfacial tensiometer; type: physicochemical
Protocol: A 0.1% surfactin HXRZ solution and a sodium deoxycholate solution were separately prepared using purified water, followed by serial dilution to obtain different gradient concentrations. The surface tensions at different concentrations were determined respectively via a JZ-200A automatic interfacial tensiometer. Table 1 CMC value determination results

Kunming mice [5] = test: Preliminary study on degradation of inguinal adipose tissue, subcutaneous injection once every 7 days; type: in vivo; settings: for ulceration at the administration sites: 200 µL s.c. left inguinal, after two administrations, n = 3
Protocol: Administration was performed once every 7 days. […] 7-9.

Female Kunming mice = test: Animal experiment comparing surfactin-C14 and surfactin-C15: subcutaneous injection in right inguinal region, four administrations; type: in vivo
Description: The higher drug concentration indicated the more obvious effect.

[6] = tested on: transgenic obese (ob/ob) mice; test: Degradation of gluteal adipose tissue after injection into adipose pads of the left buttock (H-E sections, site observation); type: in vivo; settings: Example 4, 1 %
Protocol: 6-week-old transgenic obese (ob/ob) mice were used as the animal model. Different drugs were injected into the adipose pads of the left buttock. The mice were totally divided into three groups with 7-10 mice per group, as specified below. • 1) Negative control group: injected with 200 µL of sterile normal saline; • 2) 1% sodium deoxycholate group: injected with 200 µL of sterile normal saline solution containing 1% sodium deoxycholate; • 3) 0.1% surfactin HXRZ group: injected with 200 µL of sterile normal saline solution containing 0.1% surfactin HXRZ.
The day of the first administration was defined as Day 1 of the experiment. Additional administrations were performed on Day 3 and Day 5, respectively. The general condition and administration sites of the mice were observed regularly throughout the experiment. On Day 21 of the experiment, the mice were sacrificed and dissected. The adipose tissue of the left buttock was isolated, fixed immediately in adipose tissue fixative, and then embedded in paraffin. The adipose tissue was stained by hematoxylin and eosin staining for pathological examination, followed by observation and analysis under an optical microscope.
Specifically, 6-week-old transgenic obese (ob/ob) mice were used as the animal model, with one mouse per group. 200 µL each of 0.5% and 1% surfactin HXRZ normal saline solutions (test samples) were injected into the adipose pads of the left buttock, respectively. The day of the first administration was defined as Day 1 of the experiment. Additional administrations were performed on Day 3 and Day 5, respectively. The general condition and administration sites of the mice were observed regularly throughout the experiment. On Day 21 of the experiment, the mice were sacrificed and dissected. The adipose tissue of the left buttock of the mice was isolated, fixed immediately in adipose tissue fixative, and then embedded in paraffin. The adipose tissue was stained by hematoxylin and eosin staining for pathological examination, followed by observation and analysis under an optical microscope.

[7] = tested on: Mouse adipocyte cell line 3T3-F442A; test: In vitro cytotoxicity test: relative growth rate of cells by CCK-8; type: cell-based
Protocol: In accordance with GB/T 16886.5 Biological evaluation of medical devices-Part 5: In vitro cytotoxicity tests (GB/T 16886.5-2017/ISO 10993-5:2009, IDT), and the test was performed with reference to the methods specified therein. The detailed experimental procedures are as follows:
Mouse adipocyte cell line 3T3-F442A in the logarithmic growth phase was seeded into a 96-well plate at a density of 1×10^5 cells/mL, with 100 µL per well. The culture medium consisted of a basal culture medium supplemented with 10% fetal bovine serum. The seeded cells were incubated conventionally in a carbon dioxide incubator at 37°C and 5% CO2 for 24 h.
The solution was freshly prepared before use.
After routine incubation for 24 h, the old culture medium was discarded, and then 100 µL of sample solution was added to replace it in the experimental group. An equal volume of serum-free culture medium was added to the normal control group. Each concentration was set up with at least three replicate wells.
After another incubation for 24 h, the relative growth rate of cells was detected by CCK-8. The culture medium was discarded, 100 µL of CCK-8 diluted 10-fold with the serum-free medium was added to each well. The plate was incubated in a cell incubator for another 2 h. The absorbance was determined using a microplate reader at a wavelength of 450 nm. The relative growth rate (RGR) is a ratio of the absorbance of the experimental group to the absorbance of the normal control group.
The experimental procedures in Example 3 were the same as those in Example 2 except that treatment durations were 0.5 h, 4 h and 24 h. The determination results of the relative growth rates of 3T3-F442A cells treated with surfactin HXRZ and sodium deoxycholate for different durations are shown in Table 3. Table 3 Relative growth rate (%)
3T3-F442A mouse adipocytes in the logarithmic growth phase were seeded into a 96-well plate at a density of 1 × 10^5 cells/mL, with 100 µL per well. After incubation for 24 h, the culture medium was replaced with 100 µL of culture medium containing different concentrations of samples. An equal volume of serum-free culture medium was added to the blank control group, and the incubation was continued for another 24 h. The relative growth rate of cells was determined by CCK-8. The blank control was set as 100%, the relative growth rate and half inhibitory concentration of each group were calculated. The method was the same as that in Example 2.

[8] = 10 mg/mL, four administrations, H-E sections

Substance: Sodium deoxycholate
- cell morphology of adipocytes (inverted microscope, FIG. 4) ([1]; 4 h): nearly all cells died
- cell morphology of adipocytes (inverted microscope, FIG. 4) ([1]; 24 h): nearly all cells died
- Adipose tissue weight (Kunming mice [2]; 200 µL s.c. left inguinal, once every 14 days, day 42, n = 9): 0.1889 ± 0.0270 g
- Adipocyte density (n/mm^2) (Kunming mice [2]; 200 µL s.c.): 727.84±56.64 n/mm^2
- Adipocyte density (n/mm^2) (Kunming mice [2]; 200 µL s.c., listed as sodium deoxycholate): 727.84±56.64 n/mm^2
- Fat index (%) (Kunming mice [2]; 200 µL s.c., day 42, treated-side inguinal adipose weight/body weight × 100%): 0.49±0.07 %
- Subcutaneous nodule and induration (Kunming mice [2]; Day 1, number of mice (n = 9)): 0
- Ulceration (Kunming mice [2]; Day 1, number of mice (n = 9)): 0
- Subcutaneous nodule and induration (Kunming mice [2]; Day 7, number of mice (n = 9)): 0
- Ulceration (Kunming mice [2]; Day 7, number of mice (n = 9)): 2
- Subcutaneous nodule and induration (Kunming mice [2]; Day 14, number of mice (n = 9)): 2
- Ulceration (Kunming mice [2]; Day 14, number of mice (n = 9)): 0
- Subcutaneous nodule and induration (Kunming mice [2]; Day 21, number of mice (n = 9)): 8
- Ulceration (Kunming mice [2]; Day 21, number of mice (n = 9)): 0
- Subcutaneous nodule and induration (Kunming mice [2]; Day 28, number of mice (n = 9)): 5
- Ulceration (Kunming mice [2]; Day 28, number of mice (n = 9)): 0
- Subcutaneous nodule and induration (Kunming mice [2]; Day 35, number of mice (n = 9)): 4
- Ulceration (Kunming mice [2]; Day 35, number of mice (n = 9)): 0
- Subcutaneous nodule and induration (Kunming mice [2]; Day 42, number of mice (n = 9)): 4
- Ulceration (Kunming mice [2]; Day 42, number of mice (n = 9)): 0
- ulceration at the administration sites over the administration cycle (Kunming mice [2]; entire administration cycle): ulceration was observed at the administration sites
- solubility in water [3]: poorly soluble
- Surface tension value ([4]; solution concentration 0.00078125 % in purified water): 68.51 mN/m
- Surface tension value ([4]; solution concentration 0.0015625 % in purified water): 66.57 mN/m
- Surface tension value ([4]; solution concentration 0.003125 % in purified water): 65.06 mN/m
- Surface tension value ([4]; solution concentration 0.00625 % in purified water): 63.17 mN/m
- Surface tension value ([4]; solution concentration 0.0125 % in purified water): 60.50 mN/m
- Surface tension value ([4]; solution concentration 0.025 % in purified water): 57.94 mN/m
- Surface tension value ([4]; solution concentration 0.05 % in purified water): 55.40 mN/m
- Surface tension value ([4]; solution concentration 0.1 % in purified water): 53.47 mN/m
- Surface tension value ([4]; solution concentration 0.1 % in purified water, listed as sodium deoxycholate): 53 mN/m
- ulceration at the administration sites (Kunming mice [5]; 1 %): visible ulceration was observed at the administration sites
- healing of ulceration (Kunming mice [5]; 1 %, after a 7-day administration interval): healed completely
- ulceration at the administration sites (Kunming mice [5]; 2 %): ulceration occurred at the administration sites in all mice
- healing of ulcers (Kunming mice [5]; 2 %, within the subsequent 7 days): failed to heal
- Incidence of local adverse reactions, Fourth administration (Female Kunming mice; 10 mg/mL, 200 µL s.c.): 83.33%
- Incidence of local adverse reactions, Second administration (Female Kunming mice; 10 mg/mL, 200 µL s.c.): 75.00%
- Incidence of local adverse reactions, Third administration (Female Kunming mice; 10 mg/mL, 200 µL s.c.): 66.67%
- Incidence of local adverse reactions, First administration (Female Kunming mice; 10 mg/mL, 200 µL s.c., percentage of mice with abnormalities at the administration site): 62.50%
- Mean wet adipose tissue weight/body weight percentage (x±SEM, %) (Female Kunming mice; 10 mg/mL, four administrations): 0.57±0.05 %
- Mean wet adipose tissue weight (x±SEM, unit: g) (Female Kunming mice; 10 mg/mL, four administrations once every 14 days, right inguinal): 0.224 ± 0.022 g
- Mean adipocyte area (x±SEM, mm^2) (Female Kunming mice; [8]): 0.003751±0.000614 mm^2
- Mean adipocyte density (x±SEM, n/mm^2) (Female Kunming mice; [8]): 322.3211±55.3047 n/mm^2
- incidence of adverse reactions (Female Kunming mice; over all four administrations, except first administration in the HXRZ-B high-dose group): exceeded 60%
- degradation of adipose tissue at the administration sites (H-E sections, FIG. 5) ([6]; 200 µL in normal saline, left buttock, Days 1, 3, 5, Day 21): induced the degradation of adipose tissue at the administration sites
- mice with obvious induration palpable at the administration sites ([6]; 200 µL, 7-10 mice per group): three
- mice with ulceration at the administration site ([6]; 200 µL, 7-10 mice per group): one
- treatment time at which adipocytes were completely lysed ([7]; 0.5 mg/mL): 0.5 h
- half maximal inhibitory concentrations IC50 ([7]; 3T3-F442A adipocytes, 24 h, calculated from Table 2 curves): 0.2605 mg/mL
- Relative growth rate (%) ([7]; Example 2, 0.125 mg/mL, 24 h, 3T3-F442A): 98.64±1.74%
- Relative growth rate (%) ([7]; Example 2, 0.25 mg/mL, 24 h, 3T3-F442A): 55.58±3.66%
- Relative growth rate (%) ([7]; Example 2, 0.3 mg/mL, 24 h, 3T3-F442A): 23.83±3.45%
- Relative growth rate (%) ([7]; Example 2, 0.4 mg/mL, 24 h, 3T3-F442A): 10.92±0.48%
- Relative growth rate (%) ([7]; Example 2, 0.5 mg/mL, 24 h, 3T3-F442A): 10.7±0.11%
- Relative growth rate (%) ([7]; Example 3, 0.3 mg/mL, 0.5 h): 71.17±4.00%
- Relative growth rate (%) ([7]; Example 3, 0.3 mg/mL, 4 h): 61.46±9.30%
- Relative growth rate (%) ([7]; Example 3, 0.3 mg/mL, 24 h): 10.70±3.45%
- Relative growth rate (%) ([7]; Example 3, 0.4 mg/mL, 0.5 h): 28.78±6.59%
- Relative growth rate (%) ([7]; Example 3, 0.4 mg/mL, 4 h): 23.81±1.24%
- Relative growth rate (%) ([7]; Example 3, 0.4 mg/mL, 24 h): 10.92±0.48%
- Relative growth rate (%) ([7]; Example 3, 0.5 mg/mL, 0.5 h): 12.78±0.67%
- Relative growth rate (%) ([7]; Example 3, 0.5 mg/mL, 4 h): 17.24±0.02%
- Relative growth rate (%) ([7]; Example 3, 0.5 mg/mL, 24 h): 10.69±0.11%
